Laboratory results taken from PMC9391460, “Biophysical and pharmacokinetic characterization of a small-molecule inhibitor of RUNX1/ETO tetramerization with anti-leukemic effects” (Scientific Reports, 2022).
Where two headings read alike, the source gives them in different places. Values belong to the molecule of their own block, whether it stands above or below them.

Key:
[1] = Peff in cm sec-1 from PAMPA assays; ref Bennion, Be [13]; cited from earlier work
NHR2 = biological target: T1, NHR2 (Homo sapiens, UniProt Q06455); assay: Isothermal titration calorimetry (ITC) of HEB fragment with NHR2; details: 25°C, one-site binding model
T1 construct: The N-terminal residues from Q485 to D495, T519, and the C-terminal residues from Y544 to K552; 6His (N, cleaved yes); SUMO (N, cleaved yes); made in house; host or cells: E. coli Rosetta (DE3)pLysS
T1 sequence (Q06455 337-404): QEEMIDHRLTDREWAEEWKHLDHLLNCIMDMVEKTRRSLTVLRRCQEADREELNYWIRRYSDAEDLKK
Method: The NHR2 domain was overexpressed and purified, and the resulting material yielded homogeneous, monodisperse species in solution. The sample was homogenous as analyzed by size exclusion chromatography (SEC) (Fig. 2A), SDS-PAGE (Fig. S1), and dynamic light scattering (DLS) (Fig. S3). The oligomeric state of purified NHR2 was assessed by analytical ultracentrifugation (AUC) (Fig. S4). The sedimentation profiles of NHR2 show a single major species with a sedimentation coefficient (S value) of 3.07, which corresponds to the molecular weight of 37.3 kDa. This value is in agreement with the calculated molecular weight of an NHR2 tetramer of 34.2 kDa. […] The weight percent contribution of the tetramer in 35 µM of NHR2 is 94% as obtained by integration of the continuous sedimentation coefficient distribution function. To check the function of the purified NHR2, we performed isothermal titration calorimetry (ITC) with the HEB fragment of E proteins (HEB (176–200)).
Figure S5. NHR2 interaction with E proteins (HEB (176-200)) by isothermal titration calorimetry (ITC). Titration of
600 μM HEB (176-200) peptide into a 53 μM NHR2 solution and resulting heat change are shown in the upper panel. The
ITC measurements were performed at 25°C using a MicroCal ITC200 (Malvern Instruments Ltd., United Kingdom)
calorimeter. Buffer conditions were 50 mM sodium phosphate, 50 mM sodium chloride pH 8. […]

[2] = pKa value determination by 1H NMR; assay type: physicochemical
Method: Sodium 2,2-dimethyl-2-silapentane-5-sulfonate (DSS) was used for chemical shift referencing and calibrated to a zero ppm value in each case. […] Then the pKa was calculated by using the chemical shifts of the protonated and unprotonated forms at the respective pH and fitting to the Henderson-Hasselbalch equation[25] (Fig. 6B).
1D ^1H-NMR experiments were performed using 256 scans for each sample. ^1H chemical shift values were extracted for the reporter protons using TopSpin 3.2 (Bruker BioSpin). The pKa was calculated using the chemical shifts of the protonated and unprotonated forms and their corresponding mole fraction values applying the Henderson-Hasselbalch equation as explained by Gift et al.[25]. The data were processed and plotted with the Origin software (OriginLab Corporation, USA).

[3] = Chemical stability in PBS; assay type: physicochemical; details: pH 7.4, 0–4 h
Method: (§1) For plasma stability assay, working solutions of the test and reference item were diluted f r o m the stock solutions in the appropriate solvent (Table S3) to reach working solutions of 50-fold […]
(§2) and propantheline (reference item for low plasma stability) were tested at a final concentration of 10 µM. The final solvent content in the test item incubations was 0.5% DMSO, while in the propantheline incubations, no organic solvent was added.
(§3) For chemical stability assay, working solutions of the test and reference items were diluted from the stock solutions in the appropriate solvent (Table S3) to reach working solutions of 50- […]
(§4) item and Omeprazole (reference item for low chemical stability) were tested at a final concentration of 10 µM. The final solvent content in the test item incubations was 0.5% DMSO.
(§5) For the hepatic stability assay, working solutions of the test and reference items were diluted from the stock solutions in the appropriate solvent (Table S3) to reach working solutions of a 200-fold higher strength than the intended final concentrations. In a second step, working solutions were further diluted in incubation medium to reach 10-fold concentrated starting

Plasma stability = assay type: in vitro ADME; details: mouse plasma, 0–240 min, 37 °C
Method: as §1, §2, §3, §4, §5

[4] = Kinetic solubility in PBS; assay type: physicochemical; details: kinetic from dmso stock
Method: in a cut-off concentration of 200 µM and a final solvent content of 1% DMSO. The test
solutions (triplicates) were put on a filter plate and were shaken protected from light at 300 rpm
at room temperature for 1.5 hours, followed by centrifugation at 500 x g for 3 minutes. 200 µl
of the filtrate were mixed with 100 µl ACN containing the ISTD as described in Sample

Hepatocyte stability = assay type: in vitro ADME; details: mouse hepatocytes
Method: Working solutions of the test and reference items were diluted from the stock solutions in the
incubation medium to reach 10-fold concentrated starting solutions. The final test
concentrations were 5 µM with a solvent content of 0.5% DMSO or 1% ACN in all test item
and reference item incubations, respectively. 7.44 compound was dissolved 20 mM in DMSO
Primary hepatocytes from CD-1 mice (pooled, male) were thawed
according to the instructions of the manufacturer. The incubation samples were composed of
0.2 x 10^6 cells/well in 225 µL incubation medium and 25 µL test item solution (50 µM in
incubation medium), resulting in a final start concentration of 5 µM. Samples were taken from
the suspension cultures after 0, 15, 30, 60, and 120 minutes of incubation and processed for LC-
MS analysis as described in Sample preparation section.
Positive control incubations were performed using 7-ethoxycoumarin as substrate. Metabolic
turnover rates were measured at 0 and 120 minutes of incubation. Aliquotes were taken from
the incubations for sample preparation and analysis. Hepatocyte enzyme activity was assessed
in terms of 7-ethoxycoumarin turnover, i.e., loss of 7-ethoxycoumarin.
Negative controls were performed to observe non-metabolic degradation processes; i.e. test
Negative control incubations were performed
in line with all experiments using incubation medium with test and reference item in the absence
of hepatocytes. Samples were taken from the incubations at 0 and 120 minutes and processed
as described below (in Sample preparation section).

HEB 176-200 = biological target: T2, HEB 176-200 (Homo sapiens, UniProt Q99081); assay: ITC
T2 chain: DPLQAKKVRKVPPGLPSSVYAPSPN

MST = biological target: the molecule itself; assay: MST

Molecule: CN(C)CCCN1c2ccccc2Sc2ccc(Cl)cc21 [chlorpromazine]
log Peff/PAMPA P0-1 [1]: -5.26

Molecule: O/N=C/c1cc[n+](C[n+]2ccc(/C=N/O)cc2)cc1 [methoxime (MMB4), methoxime]
log Peff/PAMPA P0-1 [1]: -9.25

Molecule: CC(=O)[C@H]1CC[C@H]2[C@@H]3CCC4=CC(=O)CC[C@]4(C)[C@H]3CC[C@]12C [progesterone]
log Peff/PAMPA P0-1 [1]: -4.94

Molecule: C[n+]1ccccc1/C=N/O [pralidoxime (P2-PAM), pralidoxime]
log Peff/PAMPA P0-1 [1]: -7.52

Molecule: NC(=O)c1cc[n+](COC[n+]2ccccc2/C=N/O)cc1 [asoxime (HI-6), asoxime]
log Peff/PAMPA P0-1 [1]: -11.16

binding enthalpy ΔH (NHR2): -15 ± 6 kcal/mol
Kd (NHR2; read-out: dissociation constant KD): 30 ± 4 µM
Molecule: HEB (176–200): HEB fragment of E proteins, known to interact with the NHR2 domain (DPLQAKKVRKVPPGLPSSVYAPSPN; UniProt Q99081 176-200, looked up, fragment)

pKa ([2]; sodium phosphate buffer with NaCl and DMSO-d6, reporter proton H2, read-out: pKa of the carboxylic group): 3.99 ± 0.01
pKa ([2]; sodium phosphate buffer with NaCl and DMSO-d6, reporter proton H3, read-out: pKa of the carboxylic group): 3.93 ± 0.01
pKa ([2]; sodium phosphate buffer with NaCl and DMSO-d6, summary value, read-out: pKa): ~3.9
Chemical stability in PBS [3]: No degradation
Plasma stability (Plasma stability): No degradation
solubility kinetic at […] ([4]; 99% PBS, 1% DMSO, pH 7.4, aqueous buffer): 177 ± 8 µM
solubility kinetic at […] ([4]; PBS with 1% DMSO, aqueous buffer, PBS, pH 7.4, read-out: Kinetic solubility): 60 µg/mL
hepatocyte CLint at 5 µM (Hepatocyte stability; male, CD-1, primary hepatocytes (pooled, suspension), read-out: Hepatocyte stability, intrinsic clearance rate (CLint)): 2.5 µL/min/1e6 cells
half-life at 5 µM (Hepatocyte stability; male, CD-1, primary hepatocytes (pooled, suspension), read-out: half-life time): > 2 h
compound remaining (Hepatocyte stability; after 120 min): 73.8%
Molecule: O=C(CC(C(=O)O)c1ccc2c(c1)OCO2)c1ccc2c(c1)OCO2 (stereo not drawn) [7.44]

Molecule: Cn1c(=O)c2[nH]cnc2n(C)c1=O [theophylline]
log Peff/PAMPA P0-1 [1]: -5.91

Molecule: CN(C)CCCN1c2ccccc2Sc2ccccc21 [promazine]
log Peff/PAMPA P0-1 [1]: -4.88

Kd (HEB 176-200): 30 µM
B1: NHR2 domain of RUNX1/ETO 485-552 (protein)
chain: KMERTVAEAKRQAAEDALAVINQQEDSSESCWNCGRKASETCSGCNTARYCGSFCQHKDWEKHHHICG

B2: NHR2 domain of RUNX1/ETO (dimer) 485-552 (protein)
chain: KMERTVAEAKRQAAEDALAVINQQEDSSESCWNCGRKASETCSGCNTARYCGSFCQHKDWEKHHHICG
Kd (MST): 1.6 µM
